Article PMC12915096, “AI‐Driven Acceleration of Fluorescence Probe Discovery” (Advanced Science, 2025)

Key:
[1] = target: tau aggregates in AD brain sections (Homo sapiens, UniProt P10636); test: Pathological staining, colocalization with anti-tau antibody
Method: (§1) Human brain tissues of AD or ALS patients and human neuroblastoma tissues were immersed in xylene three times for 5 min to remove paraffin, followed by two 10 min washes with a series of diluted alcohols (100, 90%, 70%, and 50% ethanol in dd water, v/v). Following PBS washing, heat‐mediated antigen retrieval was per‐ formed in 10 mM citrate buffer (pH 9.0) using a temperature‐gradient protocol: samples were gradually heated to boiling point through sequential low‐to‐high intensity thermal exposure (total 15 min duration), followed by natural cooling to ambient temperature. […] To avoid the fluorescence overlap between antibody staining and probe labeling, specific secondary antibodies were selected. […]
(§2) The fluorescence images of tissues were acquired by a scanning microscope (KF‐FL‐020, KFBIO).
(§3) All experiments were conducted over 3–5 independent experiments, and error bars represent the S.E.M across these runs. […] Statistical analysis was performed using GraphPad Prism 8.3.0, with significance determined by one‐way ANOVA followed by Tukey's or Dunnett's post hoc tests. […] Colocalization analysis was performed using the Pearson's correlation coefficient (PCC) calculated via ImageJ software.

tau aggregates [2] = target: T1, tau aggregates (Homo sapiens, UniProt P10636); test: Dissociation constant measurement by fluorescence titration; type: binding; conditions: tau aggregates titrated with probe, 37°C 1 h
T1 construct: purchased QYAOBIO
Method: The human recombinant tau protein (1 mg, QYAOBIO) was dissolved in PBS containing 110 µM heparin sodium to a final concentration of 55 µM. The solution was shake vigorously (100 rpm, Crystal IS‐RDV1) at 37°C for 72 h. Similarly, the human recombinant TDP‐43 protein (0.9 mg, Sangon Biotech) was dissolved in 1 mL Tris buffer (50 mM Tris, 300 mM NaCl, 10% Glycerol, pH 8.0) and was shake vigorously (200 rpm, Crystal IS‐RDV1) at 37°C for 48 h. Aggregates formation was monitored and verified using ThT fluorescence assay. The resulting aggregates was divided into aliquots and stored at −20°C before use.
To 1 µM protein solution in PBS containing 10% DMSO, different concentrations of probe was added (final concentration 0, 1, 2, 5, 8, 10, 20, 50, 80, 100, 200, 500, 800, and 1000 nM). The mixture was dispensed into 96‐well plates and incubated at 37°C for 1 h. The fluorescence intensity of the samples was recorded at maximum emission wavelength of probe by using a microplate reader (PerkinElmer, VICTOR Nivo^TM). Dose‐ response curves were generated by plotting fluorescence intensity against probe concentration, and equilibrium dissociation constants were calculated via nonlinear regression analysis in GraphPad Prism.

[3] = Photophysical property characterization (absorption/emission spectra, quantum yield); type: physicochemical; conditions: for λAbs b, spectra assays data / λEm b, spectra assays data / ε: acetonitrile (MeCN); for λAbs b, spectra assays data / λEm b, spectra assays data: 10 µM, Extended Data Table 1; for ε: in M-1·cm-1 (unit assumed)
Method: For absorption and emission spectra measurements, the molecules were diluted to 10 µM in various solvents, including EtOH, DMSO, MeCN, H2O, and MeOH. Prior to analysis, the prepared samples were equilibrated at 25°C for 5 min to ensure consistent conditions. Subsequently, their absorption and emission spectra were measured. The absolute fluorescence quantum yield of these probes was measured using the FLS1000 Photoluminescence Spectrometer (Edinburgh Instruments Ltd.).

[4] = Selectivity evaluation (fluorescence response to non-target analytes); conditions: probe 1 µM, analytes 2 µM, 60 min
Method: For selectivity evaluation, the probes were diluted to a final concentration of 1 µM and treated with 2 µM of various analytes. After 60 min of incubation at room temperature, fluorescence intensity was recorded at the specific excitation and emission wavelengths for each probe. The maximum emission wavelength intensity was plotted against the respective analytes.

[5] = Photostability evaluation under continuous excitation; type: physicochemical; conditions: 3 h illumination, PBS with 10% DMSO
Method: For photostability evaluation, PE859, 859‐1, or 859‐1 were diluted to 10 µM in PBS containing 10% DMSO. The solutions were loaded into a fluorescence spectrometer and the fluorescent intensity at maximum emission wavelength was recorded under continuous excitation for 180 min.

tau aggregates [6] = target: T1, tau aggregates; test: Fluorescence turn-on response / spectral assay with tau aggregates; type: binding
Method: (§4) To evaluate the fluorescence turn‐on responses to targets, protein (2 µM) were incubated with probe solutions (2 µM, PBS containing 10% DMSO) for 60 min at room temperature. For probe B3, specific experiments involved co‐incubation of 5 µM B3 with 10 µM TDP‐43 aggregates for 60 min.

[7] = target: T2, TDP-43 aggregates in ALS brain sections (Homo sapiens, UniProt Q13148); test: Pathological staining, colocalization with anti-TDP-43 antibody; conditions: brain sections from an ALS patient
T2 construct: from tissue; host or cells: paraffin sections of human ALS patient brain
Method: as §1, §2, §3

TDP-43 aggregates = target: T3, TDP-43 aggregates (Homo sapiens, UniProt Q13148); test: Fluorescence turn-on response / spectral assay with TDP-43 aggregates; type: binding
T3 construct: purchased Sangon Biotech
Method: as §4

tau = conditions: previous reports; ref [36], [37], [38]; cited from earlier work
[8] = target: T4, BCL-2 in neuroblastoma tumor tissue sections (Homo sapiens, UniProt P10415); test: Pathological staining, colocalization with anti-BCL-2 antibody
T4 construct: from tissue; host or cells: human neuroblastoma tissue sections
Method: as §1, §2, §3

[9] = target: T5, BCL-2 in U2932 and SU-DHL-6 cells (Homo sapiens, UniProt P10415); test: Cell imaging with anti-BCL-2 co-staining; type: cell-based; conditions: U2932 and SU-DHL-6, 5 µM obatoclax
T5 construct: endogenous in cells; host or cells: U2932 and SU-DHL-6
Method: Cells of the logarithmic growth phase were taken and transferred them to centrifuge tubes (5 × 10^4 cells/mL). After centrifugation, the culture medium was discarded. Cells were washed once with PBS, centrifuged, and the supernatant aspirated. One milliliter of ice methanol was added, followed by gentle resuspension and fixation for 30 min. After centrifugation, the supernatant was discarded, and cells were washed twice with PBS. Subsequently, 500 µL of 5% BSA blocking solution was added, and cells were gently resuspended before transfer to a 35‐mm confocal dish for sealing and incubation at room temperature for 1 h. The cell suspension was then added into a centrifuge tube, centrifuged to remove blocking solution, and resuspended in 500 µL of primary antibody solution (Proteintech, 12789‐1‐AP, 1:500). Cells were transferred to a confocal dish and incubated overnight at 4°C. After centrifugation to remove primary antibody, cells were washed twice with PBS. Next, 500 µL of secondary antibody (Beyotime, A0468, 1:500) was added, followed by incubation at room temperature for 1 h. Following centrifugation, the cells were washed twice with PBS and stained with 500 µL of DAPI solution (Beyotime, C1006) for 10 min at room temperature. […] After centrifugation, cells were washed twice with PBS, resuspended in 1 mL PBS, transferred to a confocal dish, and imaged with a laser confocal microscope.

BCL-2 [10] = target: T6, BCL-2 (Homo sapiens, UniProt P10415); test: Fluorescence turn-on response / spectral assay with BCL-2; type: binding
Method: as §4

[11] = test system: SU-DHL-6 lymphoma xenografts; test: Tumor model ex vivo fluorescence imaging; type: in vivo, mice; conditions: 10 mg/kg i.v., 4 h post-injection
Method: SU-DHL-6 cells were suspended in 100 μL of 50% Matrigel / PBS mixture. Hun dred microliters of SU-DHL-6 cell suspensions, corresponding to 1.8 × 10^6 cells per mouse, were subcutaneously injected into the left flank region of NSFG mice (female, aged 8-10 weeks). The mice were monitored for tumor formation. […] Mice were sacrificed after 4 h and tissues (heart, liver, spleen, lung, kidney, and tumor) were obtained. The fluorescence signals in tissues were recorded using the […] imaging system.

BCL-2 [12] = target: T6, BCL-2; conditions: previous reports; ref [36], [37], [38]; cited from earlier work

T1 sequence (P10636 1-441 isoform P10636-8): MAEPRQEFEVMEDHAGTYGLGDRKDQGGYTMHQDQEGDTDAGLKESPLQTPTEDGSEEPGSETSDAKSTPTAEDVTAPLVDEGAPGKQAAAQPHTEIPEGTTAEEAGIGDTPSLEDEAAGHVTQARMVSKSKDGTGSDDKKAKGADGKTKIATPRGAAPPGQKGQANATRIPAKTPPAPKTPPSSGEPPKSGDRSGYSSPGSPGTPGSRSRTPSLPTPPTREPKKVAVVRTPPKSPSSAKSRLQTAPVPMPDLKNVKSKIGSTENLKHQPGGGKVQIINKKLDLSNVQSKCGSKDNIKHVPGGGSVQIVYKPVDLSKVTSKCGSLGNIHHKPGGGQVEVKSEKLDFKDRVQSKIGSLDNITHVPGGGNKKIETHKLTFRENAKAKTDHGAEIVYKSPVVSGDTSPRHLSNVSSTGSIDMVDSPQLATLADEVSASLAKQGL
T6 sequence (P10415 whole entry, species assumed): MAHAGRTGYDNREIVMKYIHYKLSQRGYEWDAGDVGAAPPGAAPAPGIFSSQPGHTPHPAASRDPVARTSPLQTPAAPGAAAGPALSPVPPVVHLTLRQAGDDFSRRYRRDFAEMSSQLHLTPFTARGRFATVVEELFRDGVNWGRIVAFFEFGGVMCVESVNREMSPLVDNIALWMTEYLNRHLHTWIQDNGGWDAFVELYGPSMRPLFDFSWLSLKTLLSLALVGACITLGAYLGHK
Chain of tau aggregates in AD brain sections (P10636 623-695 limits assumed): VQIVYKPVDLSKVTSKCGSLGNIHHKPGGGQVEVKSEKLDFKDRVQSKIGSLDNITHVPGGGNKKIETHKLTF
T3 sequence (Q13148 whole entry): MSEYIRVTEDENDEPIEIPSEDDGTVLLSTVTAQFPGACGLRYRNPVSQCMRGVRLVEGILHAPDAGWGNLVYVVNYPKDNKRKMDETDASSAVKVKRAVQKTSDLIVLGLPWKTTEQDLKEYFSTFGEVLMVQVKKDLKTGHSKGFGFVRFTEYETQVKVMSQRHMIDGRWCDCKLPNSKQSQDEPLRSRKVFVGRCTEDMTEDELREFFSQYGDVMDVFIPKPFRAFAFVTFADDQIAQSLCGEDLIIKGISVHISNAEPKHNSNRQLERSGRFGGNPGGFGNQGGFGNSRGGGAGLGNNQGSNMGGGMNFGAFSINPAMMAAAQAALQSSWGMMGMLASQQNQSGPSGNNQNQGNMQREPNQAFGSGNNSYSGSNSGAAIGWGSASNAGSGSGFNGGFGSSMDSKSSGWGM
T2 sequence (Q13148 whole entry): as above
T4 sequence (P10415 whole entry): as the sequence (P10415 whole entry, species assumed) above
T5 sequence (P10415 whole entry): as the sequence (P10415 whole entry, species assumed) above

SMILES	Pearson Correlation Coefficient (PCC) with anti-tau antibody staining [1]	λAbs ([3]; DMSO) [nm]	λEm ([3]; DMSO) [nm]	λAbs ([3]; EtOH, Extended Data Table 5) [nm]	λEm ([3]; EtOH, Extended Data Table 5) [nm]	λAbs ([3]; H2O, Extended Data Table 5) [nm]	Quantum yield experimental ([3]; MeCN)	log10ε experimental ([3]; MeCN)	λAbs ([3]; MeCN, Extended Data Table 5) [nm]	λEm ([3]; MeCN, Extended Data Table 5) [nm]	λAbs ([3]; MeOH, Extended Data Table 5) [nm]	λEm ([3]; MeOH, Extended Data Table 5) [nm]	Fluorescence turn-on response to tau aggregates (tau aggregates [6])	λAbs b, spectra assays data [3] [nm]	λEm b, spectra assays data [3] [nm]	ε [3]	further results
COc1cc(OCc2ccccn2)ccc1/C=C/C1=[O+][B-](F)(F)OC(/C=C/c2ccc3cc[nH]c3c2)=C1 [859-1]	0.95	539	610	513	588	510	0.0063	4.9784	514	594	514	595	substantially increased fluorescence intensity				Kd (tau aggregates [2]): 217 nM; Emission redshift compared to PE859 ([3]; MeCN): 192 nm; Fluorescence response to non-target analytes (selectivity) [4]: minimal response to other analytes; Fluorescence intensity variation under continuous illumination [5]: 152%; Emission redshift when incubated with tau aggregates (tau aggregates [6]; probe 2 µM, tau aggregates 4 µM): 6 nm
Cc1ccc(Cl)cc1NC(=O)c1cc2c(=O)n3cccc(C)c3nc2n1C [B3]							0.2891	4.2923						370	443	19600	PCC with anti-TDP-43 antibody staining [7]: 0.95; Blue shift of emission upon interaction with TDP-43 aggregates (TDP-43 aggregates): 30 nm; Fluorescence turn-on response to TDP-43 aggregates (TDP-43 aggregates): most significant fluorescence enhancement
Cn1c(C(=O)Nc2ccc(OC(F)(F)F)cc2)cc2c(=O)n3ccccc3nc21 [B5]														382	450	19800	
Cc1ccc(-n2c(/C=C\c3ccc(F)c(F)c3)nc3ccccc3c2=O)c(C)c1 [B6]														330	450	20200	
COc1cc(OCc2ccccn2)ccc1/C=C/c1cc(/C=C/c2ccc3cc[nH]c3c2)[nH]n1 [PE859]	0.85	343	408	335	397	352	0.1223	4.9675	338	402	337	410	most significant fluorescence enhancement	335		92780	IC50 (tau): 660 nM; λEm ([3]; H2O, Extended Data Table 5): 422 nm; Blue shift in emission maximum upon binding to tau aggregates (tau aggregates [6]): 10 nm
COC1=CC(c2cc3ccccc3[nH]2)=N/C1=C\c1[nH]c(C)cc1C [obatoclax]							0.0069	4.5902						480	540	38920	PCC with anti-BCL-2 antibody staining [8]: 0.80; Detection of BCL-2 in overexpressing cell lines [9]: effectively detected; Blue shift of emission in the presence of BCL-2 (BCL-2 [10]): 7 nm; Fluorescence turn-on response to BCL-2 (BCL-2 [10]): most significant fluorescence enhancement; Accumulation in tumors versus other organs [11]: higher accumulation in tumors compared to other organs; Ki (BCL-2 [12]): 220 nM
